Results: patent US9827260B2, “Composition for buffered aminoalkyl glucosaminide phosphate compounds and its use for enhancing an immune response” (GlaxoSmithKline Biologicals s.a., priority 2013, dated 2017)

Assays:
[1] = Accelerated stability test (forced degradation), 14 days at 40° C; conditions: both buffers at pH=7.0, FIG. 5
Procedure: Buffers 1-7 of Table 1 were screened for stability at the concentrations shown in the Table using an accelerated stability test. The buffer compositions were maintained for 14 days at 40° C.

[2] = Sonication processing time to achieve a clear solution of CRX-601 buffered formulations; assay type: physicochemical
Procedure: (§1) CRX-601 was formulated in the 10 mM HEPES buffered at pH=7.0 at 2 mg/mL target concentration by weighing 3.99 mg of CRX-601 and adding 1.877 mL of 10 mM HEPES followed by ultrasonication in a water bath sonicator. After 25 minutes the solution was visibly clear, but the sonication was continued since the other CRX-601 formulations with the other buffers employed herein had not yet achieved similar visual appearance. This was done because the goal was to subject each CRX-601 buffered formulation to the same amount of processing energy.
as §1, with “pH=8.0” for “pH=7.0”
Each of the buffer solutions was then sonciated to reduce the particle size to allow for sterile filtration.

SMILES | stability of the AGP in HEPES as compared against phosphate buffer [1] | sonication time until solution visibly clear ([2]; 2 mg/mL in 10 mM HEPES at pH=7.0, water bath sonicator) | sonication time until solution visibly clear ([2]; 2 mg/mL in 10 mM HEPES at pH=8.0, water bath sonicator)
CCCCCCCCCCC[C@H](CC(=O)N[C@H]1[C@H](OC[C@H](NC(=O)C[C@@H](CCCCCCCCCCC)OC(=O)CCCCCCCCC)C(=O)O)O[C@H](CO)[C@@H](OP(=O)(O)O)[C@@H]1OC(=O)C[C@@H](CCCCCCCCCCC)OC(=O)CCCCCCCCC)OC(=O)CCCCCCCCC [CRX-527] | enhanced stability | – | –
CCCCCCCCCCC[C@H](CC(=O)N[C@H]1[C@H](OC[C@H](NC(=O)C[C@@H](CCCCCCCCCCC)OCCCCCCCCCC)C(=O)O)O[C@H](CO)[C@@H](OP(=O)(O)O)[C@@H]1OC(=O)C[C@@H](CCCCCCCCCCC)OCCCCCCCCCC)OCCCCCCCCCC [CRX-601] | enhanced stability | 25 min | 25 min
